Measurements from patent US5089623A, “Certain imidate insecticides” (Imperial Chemical Industries Plc, priority 1990, dated 1992).

How the values were obtained:
Type in all cases: in vivo
[1] = tested on: Housefly [Musca domestica]; experiment: Housefly insecticidal test (HF); conditions: per 25 female houseflies, 48 hours
[2] = tested on: Tobacco Budworm [Heliothis virescens (Fabricius)] eggs; experiment: Tobacco budworm egg test (TBW-E); conditions: percent in solution
Excerpt: Eggs: Paper towel patches of 2-day old eggs of the tobacco budworm were dipped in acetone solutions of the test compound and placed in petri dishes containing a portion of larval rearing medium. […] Test concentrations ranged from 0.1% downward.

[3] = tested on: Cabbage Looper [Trichoplusia ni (Hubner)]; experiment: Cabbage looper test (CL); conditions: second-instar larvae, 3-5 days, percent in solution
Description: Test compounds were diluted in a 50-50 acetone-water solution. Cotyledons of hyzini squash (Calabacita abobrinha), approximately 1×1.5 inches, were immersed in the test solutions for 2-3 seconds and placed on a wire screen to dry. The dried leaves were placed in petri dishes containing a moistened piece of filter paper and infested with 5 second-instar cabbage looper larvae. The dishes were placed in a high humidity chamber. Mortality of the larvae was recorded 3-5 days later. Test concentrations ranged from 0.1% downward. The LC-50 value is expressed below in Table 3 under the heading "CL" in terms of percent of the test compound in solution.

Structure (SMILES)	LC50 HF [1] [µg]	LC50 TBW E [2] [%]	LC50 CL [3] [%]
CC(C)(C)C(=Nc1cccc(Cl)c1)OCc1cccc(Oc2ccccc2)c1 [Compound 12]	> 100	> 0.1	0.008
CC1CC1C(=Nc1ccc(Cl)cc1)OCc1cccc(Oc2ccccc2)c1 (centres unmarked) [Compound 15]	> 100	> 0.01	0.025
CC(C)C(=Nc1cc(Cl)c(Cl)cc1Cl)OCc1cccc(Oc2ccccc2)c1 [Compound 18]	> 100	0.09	0.008
CC(C)C(=Nc1c(Cl)cc(Cl)cc1Cl)OCc1cccc(Oc2ccccc2)c1 [Compound 19]	> 100	> 0.1	< 0.1
COC(C)C(=Nc1ccc(Cl)cc1)OCc1cccc(Oc2ccccc2)c1 (centres unmarked) [Compound 22]	15	0.08	0.004
Clc1cccc(N=C(OCc2cccc(Oc3ccccc3)c2)C2CC2)c1 [Compound 24]	25	0.1	0.005
CCC(C)C(=Nc1ccc(Cl)cc1)OCc1cccc(Oc2ccccc2)c1 (centres unmarked) [Compound 26]	> 100	> 0.1	0.007
CC(Cl)C(=Nc1ccc(Cl)c(Cl)c1)OCc1cccc(Oc2ccccc2)c1 (centres unmarked) [Compound 27]	> 100	> 0.1	0.04
CCC(=Nc1cccc(Cl)c1Cl)OCc1cccc(Oc2ccccc2)c1 [Compound 28]	> 100	> 0.1	0.009
CCC(=Nc1ccc(Cl)c(Cl)c1)OCc1cccc(Oc2ccccc2)c1 [Compound 36]	20	> 0.01	0.024
CCCC(=Nc1ccc(Cl)c(Cl)c1)OCc1cccc(Oc2ccccc2)c1 [Compound 38]	33	0.05	0.006
CCC(C)C(=Nc1ccc(Cl)c(Cl)c1)OCc1cccc(Oc2ccccc2)c1 (centres unmarked) [Compound 39]	> 100	> 0.1	0.0023
CC(C)C(=Nc1ccc(Cl)c(Cl)c1)OCc1cccc(Oc2cccc(F)c2)c1 [Compound 40]	36	0.08	0.0025
CC(C)(C)C(=Nc1ccc(F)cc1)OCc1cccc(Oc2ccccc2)c1 [Compound 48]	> 100	> 0.05	0.03
CC(C)C(=Nc1cc(F)ccc1F)OCc1cccc(Oc2ccccc2)c1 [Compound 56]	91	> 0.05	0.01
CC(C)C(=Nc1cc(F)c(F)cc1F)OCc1cccc(Oc2ccccc2)c1 [Compound 58]	16	0.06	0.002
CCC(=Nc1ccc(F)cc1F)OCc1cccc(Oc2ccccc2)c1 [Compound 59]	25	> 0.1	0.02
COc1cc(N=C(OCc2cccc(Oc3ccccc3)c2)C(C)C)cc(C(F)(F)F)c1 [Compound 76]	20	0.05	0.002
CC(C)C(=Nc1cc(C(F)(F)F)cc(C(F)(F)F)c1)OCc1cccc(Oc2ccccc2)c1 [Compound 78]	> 100	> 0.1	0.0025
CC(C)C(=Nc1ccc(Br)cc1F)OCc1cccc(Oc2ccccc2)c1 [Compound 79]	6	0.05	0.003
CC(C)C(=Nc1cc(C(F)(F)F)ccc1F)OCc1cccc(Oc2ccccc2)c1 [Compound 84]	93	0.1	0.006
FC(F)(F)c1cccc(N=C(OCc2cccc(Oc3ccccc3)c2)C2CC2)c1 [Compound 86]	65	> 0.01	0.013
Cc1cc(N=C(OCc2cccc(Oc3ccccc3)c2)C(C)C)ccc1F [Compound 87]	5	0.03	0.004
Cc1ccc(Cl)c(N=C(OCc2cccc(Oc3ccccc3)c2)C(C)C)c1 [Compound 93]	64	> 0.1	0.005
Cc1ccc(N=C(OCc2cccc(Oc3ccccc3)c2)C(C)C)c(Cl)c1 [Compound 94]	44	0.075	0.0045
COc1cc(N=C(OCc2cccc(Oc3ccccc3)c2)C(C)C)c(OC)cc1Cl [Compound 99]	> 100	> 0.1	0.016
CCSc1ccc(N=C(OCc2cccc(Oc3ccccc3)c2)C(C)C)cc1Cl [Compound 103]	> 100	> 0.1	0.015
CCOC(=O)c1ccc(N=C(OCc2cccc(Oc3ccccc3)c2)C(C)C)cc1Cl [Compound 104]	> 100	> 0.1	0.004

Structure (SMILES)	LC50 HF [1] [µg]	LC50 TBW E [2] [%]	LC50 CL [3] [%]
CC(C)(C)C(=Nc1ccc(Cl)c([N+](=O)[O-])c1)OCc1cccc(Oc2ccccc2)c1 [Compound 105]	> 100	> 0.1	0.018
CC(C)(C)C(=Nc1ccc(Br)c(Cl)c1)OCc1cccc(Oc2ccccc2)c1 [Compound 106]	> 100	> 0.1	0.014
Cc1ccc(N=C(OCc2cccc(Oc3ccccc3)c2)C(C)(C)C)cc1Cl [Compound 107]	> 100	> 0.1	0.007
Cc1cc(Cl)ccc1N=C(OCc1cccc(Oc2ccccc2)c1)C(C)(C)C [Compound 109]	> 100	> 0.1	0.002
COc1ccc(N=C(OCc2cccc(Oc3ccc(F)cc3)c2)C(C)C)cc1Cl [Compound 110]	26	0.04	0.007
CC(C)(Cl)C(=Nc1ccc(Cl)c2ccccc12)OCc1cccc(Oc2ccccc2)c1 [Compound 111]	> 100	> 0.1	0.1
CC(C)C(=Nc1cccc(Oc2ccccn2)c1)OCc1cccc(Oc2ccccc2)c1 [Compound 114]	92		< 0.1
CCC(=Nc1ccc(F)c(Cl)c1)OCc1cccc(Oc2ccc(F)cc2)c1 [Compound 115]	10	0.075	0.0012
CC(Br)C(=Nc1ccc(F)c(Cl)c1)OCc1cccc(Oc2ccccc2)c1 (centres unmarked) [Compound 118]	18	> 0.1	0.0013
CCCCC(=Nc1ccc(F)c(Cl)c1)OCc1cccc(Oc2ccccc2)c1 [Compound 121]	> 100	> 0.1	0.1
CCCC(=Nc1ccc(F)c(Cl)c1)OCc1cccc(Oc2ccccc2)c1 [Compound 123]	> 100	> 0.1	0.012
CC(C)C(=Nc1cccc(C#N)c1)OCc1cccc(Oc2ccccc2)c1 [Compound 126]	> 100	> 0.1	0.08
Cc1cc(N=C(OCc2cccc(Oc3ccccc3)c2)C(C)C)ccc1Br [Compound 127]	58	0.04	0.01
CC(C)C(=Nc1c(Br)cc(F)cc1Br)OCc1cccc(Oc2ccccc2)c1 [Compound 130]	> 100	> 0.1	0.005
Cc1cc(Br)ccc1N=C(OCc1cccc(Oc2ccccc2)c1)C(C)C [Compound 133]	66	0.1	0.005
CC(C)(C)C(=Nc1cccc(Br)c1)OCc1cccc(Oc2ccccc2)c1 [Compound 134]	> 100	> 0.1	0.015
CC(C)C(=Nc1cccc(I)c1)OCc1cccc(Oc2ccccc2)c1 [Compound 136]	9	0.08	0.004
CSc1ccc(N=C(OCc2cccc(Oc3ccccc3)c2)C(Cl)Cl)cc1 [Compound 141]	35	> 0.1	< 0.1
Cc1cccc(N=C(OCc2cccc(Oc3ccccc3)c2)C(C)C)c1C [Compound 148]	18	0.025	0.0025
COc1ccc(N=C(OCc2cccc(Oc3ccccc3)c2)C(C)C)c(C)c1 [Compound 149]	17	0.05	0.007
COc1ccc(C)cc1N=C(OCc1cccc(Oc2ccccc2)c1)C(C)C [Compound 150]	89	> 0.1	0.01
CCCCc1ccc(N=C(OCc2cccc(Oc3ccccc3)c2)C(C)C)cc1 [Compound 152]	> 100	> 0.1	0.009
CCC(=Nc1ccc(CC)cc1)OCc1cccc(Oc2ccccc2)c1 [Compound 157]	25	> 0.1	0.009
Cc1ccc(N=C(OCc2cccc(Oc3ccccc3)c2)C(C)C)cc1C [Compound 158]	9	0.1	0.003
CCOc1ccc(N=C(OCc2cccc(Oc3ccccc3)c2)C(C)(C)C)cc1 [Compound 164]	> 100	> 0.1	0.005
FC(F)(F)c1ccc(Oc2ccc(COC(=Nc3ccc(Cl)cc3)C(Cl)Cl)cc2)nc1 [Compound 453]	> 100		0.1
CC(C)C(=Nc1ccc(F)c(Cl)c1)OC(F)c1cccc(Oc2ccc(F)cc2)c1 (centres unmarked) [Compound 502]	80		
